Data from patent US8183204B2, “Methods and compositions for increasing skin remodeling” (Summit Associates International Inc., priority 2000, dated 2012).
Where no end group is shown, it is not given here.

Tested on: surgical incisions on the backs of Swiss-Webster mice
Test: Scar formation after surgical incisions, synthetic peptide-metal complexes injected along the incision line
Type: in vivo
Settings: for post-surgical scar formation compared with control wounds (in words): mice, injection along incision line; for Scar Formation score (5 days): 10 mice each, 1 mg/ml in 0.85% saline, 0.02 ml injected at four sites on each side of incision, immediately after surgery and 24 hours later, rated 0 to 4 (heavy scarring), untreated control 3.6

Row | Molecule | post-surgical scar formation compared with control wounds (in words) | Scar Formation score (5 days)
1 | N[C@@H](CS(=O)(=O)O)C(=O)O.[Cu+2] [Cysteic acid-Copper(II), reference compound] | much less active | –
2 | N[C@@H](CCS(=O)(=O)O)C(=O)O.[Cu+2] [Homocysteic acid-Copper(II), reference compound] | much less active | –
3 | Ala-Gly-His-Copper(II) | – | 0.3 ± 0.1
4 | Ala-Gly-His-Tin(II) | – | 0.3 ± 0.1
5 | Cysteine sulfinic acid-Copper(II) [reference compound] | much less active | 2.9 ± 0.5
6 | Gly-Cys-Gly-Copper(II) | – | 1.4 ± 0.3
7 | Gly-Gly-Gly-Copper(II) | – | 0.5 ± 0.3
8 | Gly-Gly-His-Copper(II) | – | 0.3 ± 0.2
9 | Gly-His-Lys-Copper(II) | – | 0.2 ± 0.1
10 | Gly-His-Lys-His-Copper(II) (GHKH; also: copper(II) complex) | – | 0.4 ± 0.2
11 | Gly-His-Lys-His-Tin(II) (GHKH; also: tin(II) complex) | – | 0.4 ± 0.2
12 | Gly-His-Lys-Tin(II) | – | 0.4 ± 0.1
13 | His-Gly-Gly-Copper(II) | – | 0.5 ± 0.2
14 | His-Gly-Gly-Tin(II) | – | 0.4 ± 0.2
15 | Phe-Phe-Copper(II) | – | 0.5 ± 0.3
